Measured values: patent EP0515159A1, “Ursane derivatives, their preparation and pharmaceutical formulations thereof” (IDB HOLDING S.p.A., priority 1991, dated 1992)
Counter-ions that a name gives are not always drawn. Like-named read-outs stand apart in the source and are kept apart here.

Columns and labels:
[1] = tested on: alcohol-induced gastric lesions; experiment: Alcohol-induced ulcer (gastric lesions) in the rat; format: in vivo; conditions: for inhibition at 50 mg/kg: dose 50.0 mg/kg os; for inhibition at 100 mg/kg: dose 100.0 mg/kg os; for inhibition at 200 mg/kg: dose 200.0 mg/kg os; for ED50: by mouth, inhibition of alcohol-induced gastric lesions, read-out: ED₅₀ mg/kg and confidence limits (p = 0.95); for ED50 / oral therapeutic indices (LD₅₀/ED₅₀) Alcohol-induced ulcer: rat; for R: potency ratio relative to Carbenoxolone (= 1.0), alcohol-induced lesions; for inhibition at 12.5 mg/kg: dose 12.5 mg/kg os; for oral therapeutic indices (LD₅₀/ED₅₀) Alcohol-induced ulcer: oral LD50 / ED50 in alcohol-induced ulcer; for inhibition at 6.25 mg/kg: dose 6.25 mg/kg os
Procedure: The gastric lesions were induced in male Sprague-Dawley rats weighing 120-140 g, which had been fasted for 48 h, by administering 1 ml/rat of 90% alcohol by mouth. One hour after administration of the damage-inducing agent, the animals were sacrifed in an excess of ether and the stomachs opened along the major curvature; the gastric lesions were measured in mm² and expressed as the percentage of inhibition compared with the controls. The substances under investigation, suspended in 0.5% Methocel, were administered by mouth 1 hour before the alcohol.

[2] = tested on: Diclofenac-induced gastric ulcers; experiment: Diclofenac-induced ulcer (gastric lesions) in the rat; format: in vivo; conditions: for ED50: by mouth, inhibition of Diclofenac-induced gastric lesions, read-out: ED₅₀ and confidence limits (p = 0.95); for ED50 / oral therapeutic indices (LD₅₀/ED₅₀) Diclofenac-induced ulcer: rat; for % Inhibition: 1 h before 100 mg/kg Diclofenac, sacrifice 5 h after; for R: potency ratio relative to Carbenoxolone (= 1.0), Diclofenac-induced ulcers; for oral therapeutic indices (LD₅₀/ED₅₀) Diclofenac-induced ulcer: oral LD50 / ED50 in Diclofenac-induced ulcer
Procedure: Female Sprague-Dawley rats weighing 180-200 g that had been fasted for 24 h were used in this experiment. The gastric lesions were induced by a single oral dose of 100 mg/kg Diclofenac.
The animals were sacrificed 5 h after administration of the damage-inducing agent. The gastric lesions were measured in mm² and expressed as a percentage of inhibition.
The substances under investigation, suspended in 0.5% Methocel, were administered by mouth 1 h before the anti-inflammatory agent.

[3] = Antidiuretic activity: effects on urinary excretion in the rat; format: in vivo; conditions: for Electrolyte output, mEq/6h/rat K^+ / Electrolyte output, mEq/6h/rat Na^+ / Na^+/K^+ / Urine volume (0-6 h): urine collected 6 hours after fifth dose
Procedure: The effect of compounds IIa and IIb (M=Na) on urinary excretion was investigated in male Sprague-Dawley rats weighing 180-200 g. […] Carbenoxolone in a dose of 200 mg/kg was used as a reference substance. The animals were fasted for 18 h before the last dose. The urine was collected for 6 hours after administration of the fifth dose and its content of Na⁺ and K⁺ was measured.

[4] = Acute toxicity in the rat; conditions: in vivo; for LD50 at 14 days: both sexes, Sprague-Dawley; for LD50 at 336 h: 14 days observation
Procedure: The acute toxicity of compounds IIa and IIb (M=Na) was evaluated in the rat after oral and intraperitoneal administration.
Each experimental group comprised 5 male and 5 female Sprague-Dawley rats. After being treated, the animals were kept under observation for 14 days and the dose that caused the death of 50% of the animals (LD₅₀) was calculated by the probit method (Finney D J. in "Probit Analysis", Cambridge University Press, 3rd Ed., Cambridge, 1971). The results shown in Table 4 indicate that, after intraperitoneal administration, the toxicity of both compounds is similar to that of the reference product.

[5] = Rattus norvegicus, 1 hour before 90% alcohol, lesions in mm² vs controls
[6] = 200 mg/kg os once a day for 5 days
[7] = 20 mg/kg os once a day for 5 days
[8] = ip, intraperitoneal, probit method, read-out: LD50 (confidence limits p = 0.95) mg/kg i.p
[9] = oral, 1000 mg/kg (LD10) = maximum dose that could be administered (2 doses of 500 mg/kg 1 h apart), read-out: LD50 (confidence limits p = 0.95) mg/kg p.o

| Compound | inhibition at 50 mg/kg [1, 5] [%] | inhibition at 100 mg/kg [1, 5] [%] | inhibition at 200 mg/kg [1, 5] [%] | ED50 [1] [mg/kg] | R [1] | ED50 [2] [mg/kg] | % Inhibition ([2]; dose 3.125 mg/kg os) [%] | % Inhibition ([2]; dose 6.25 mg/kg os) [%] | % Inhibition ([2]; dose 12.5 mg/kg os) [%] | % Inhibition ([2]; dose 25.0 mg/kg os) [%] | R [2] | inhibition at 12.5 mg/kg [1, 5] [%] | oral therapeutic indices (LD₅₀/ED₅₀) Diclofenac-induced ulcer [2] | oral therapeutic indices (LD₅₀/ED₅₀) Alcohol-induced ulcer [1] | Electrolyte output, mEq/6h/rat K^+ [3, 7] [mEq/6h/rat] | Electrolyte output, mEq/6h/rat Na^+ [3, 7] [mEq/6h/rat] | Na^+/K^+ [3, 7] | Urine volume (0-6 h) [3, 7] [mL] | inhibition at 6.25 mg/kg [1, 5] [%] | LD50 at 336 h [4, 8] [mg/kg] | also measured |
| --- | --- | --- | --- | --- | --- | --- | --- | --- | --- | --- | --- | --- | --- | --- | --- | --- | --- | --- | --- | --- | --- |
| C[C@H]1[C@H](C)CC[C@]2(C(=O)O)CC[C@]3(C)C(=CC=C4[C@@]5(C)CC[C@H](OC(=O)CCC(=O)O)C(C)(C)[C@@H]5CC[C@]43C)[C@H]12 [3β-(carboxy-propionyloxy)-ursa-9(11),12-dien-28-oic acid] | 28.4 | 45.6 | 76.3 | 106 | 0.8 |  |  |  |  |  |  |  |  |  |  |  |  |  |  |  | inhibition at 400 mg/kg ([1]; Rattus norvegicus, dose 400.0 mg/kg os, 1 hour before 90% alcohol, lesions in mm² vs controls): 80.1% |
| CC1(C)[C@@H](OC(=O)c2ccccc2C(=O)O)CC[C@]2(C)[C@H]3CC=C4[C@@H]5C[C@@](C)(COC(=O)c6ccccc6C(=O)O)CC[C@]5(C)CC[C@@]4(C)[C@]3(C)CC[C@@H]12 [18β-olean-12-ene-3β,3-0-diol di-0-hemiphthalate] | 70.2 |  |  | 14.6 | 5.6 | 38.9 | 1.5 | 5.9 | 21.5 | 29.8 | 3.5 | 40.8 |  |  |  |  |  |  |  |  | inhibition at 0.8 mg/kg ([1]; Rattus norvegicus, dose 0.8 mg/kg os, 1 hour before 90% alcohol, lesions in mm² vs controls): 12%; inhibition at 3.12 mg/kg ([1]; Rattus norvegicus, dose 3.12 mg/kg os, 1 hour before 90% alcohol, lesions in mm² vs controls): 32% |
| CC1(C)[C@@H](OC(=O)CCC(=O)O)CC[C@]2(C)[C@H]3C(=O)C=C4[C@@H]5C[C@@](C)(C(=O)O)CC[C@]5(C)CC[C@@]4(C)[C@]3(C)CC[C@@H]12 [Carbenoxolone, sodium salt of the hemisuccinate of β-glycyrrhetic acid] | 34.9 | 45 | 83 | 90.4 | 1.0 | 140 |  |  |  |  | 1.0 |  | 22 | 34 |  |  |  |  |  |  | % Inhibition ([2]; dose 100.0 mg/kg os): 37.2%; % Inhibition ([2]; dose 150.0 mg/kg os): 45.6%; % Inhibition ([2]; dose 200.0 mg/kg os): 72.7%; % Inhibition ([2]; dose 400.0 mg/kg os): 90.9%; Electrolyte output, mEq/6h/rat K^+ [3, 6]: 0.12±0.01 mEq/6h/rat; Electrolyte output, mEq/6h/rat Na^+ [3, 6]: 0.10±0.01 mEq/6h/rat; Na^+/K^+ [3, 6]: 0.8; Urine volume (0-6 h) [3, 6]: 1.5 ± 0.2 mL; Na^+/K^+ ([3]; 200 mg/kg os once a day for 5 days, listed as carbenoxolone): 0.5; reducing diuresis ([3]; 200 mg/kg, versus controls): 67%; reduction in the excretion of Na⁺ ([3]; 200 mg/kg, versus controls): 72%; LD50 at 14 days ([4]; ip): 92 mg/kg; LD50 at 14 days ([4]; po): 3100 mg/kg |
| C[C@H]1[C@H](C)CC[C@]2(COC(=O)c3ccccc3C(=O)O)CC[C@]3(C)C(=CC[C@@H]4[C@@]5(C)CC[C@H](OC(=O)c6ccccc6C(=O)O)C(C)(C)[C@@H]5CC[C@]43C)[C@H]12 [IIa (M = Na), disodium salt of the dihemiphthalate or urs-12-ene-3β,28-diol] |  |  |  | 3.7 | 25.6 | 7 | 8.9 | 28.3 |  |  | 16.3 |  | > 143 | > 270 | 0.14±0.01 | 0.21±0.01 | 1.5 | 3.0 ± 0.2 | 67.4 | 60 | % Inhibition ([2]; dose 7.5 mg/kg os): 62.3%; % Inhibition ([2]; dose 9.0 mg/kg os): 67.9%; inhibition at 2 mg/kg ([1]; Rattus norvegicus, dose 2.0 mg/kg os, 1 hour before 90% alcohol, lesions in mm² vs controls): 16.1%; inhibition at 2.5 mg/kg ([1]; Rattus norvegicus, dose 2.5 mg/kg os, 1 hour before 90% alcohol, lesions in mm² vs controls): 22.1%; inhibition at 3.125 mg/kg ([1]; Rattus norvegicus, dose 3.125 mg/kg os, 1 hour before 90% alcohol, lesions in mm² vs controls): 65.2%; LD50 at 336 h [4, 9]: > 1000 mg/kg |
| C[C@H]1[C@H](C)CC[C@]2(COC(=O)c3ccccc3C(=O)O)CC[C@]3(C)C(=CC=C4[C@@]5(C)CC[C@H](OC(=O)c6ccccc6C(=O)O)C(C)(C)[C@@H]5CC[C@]43C)[C@H]12 [IIb (M = Na), disodium salt of the dihemiphthalate of ursa-9(11),12-diene-3β,28-diol] |  |  |  | 16.8 | 5.5 | 6.4 | 37.4 | 43.3 | 72.0 | 73.3 | 17.8 | 32.5 | > 156 | > 60 | 0.13±0.02 | 0.19±0.02 | 1.5 | 2.8 ± 0.3 | 10.7 | 75 | inhibition at 16 mg/kg ([1]; Rattus norvegicus, dose 16.0 mg/kg os, 1 hour before 90% alcohol, lesions in mm² vs controls): 38.2%; inhibition at 25 mg/kg ([1]; Rattus norvegicus, dose 25.0 mg/kg os, 1 hour before 90% alcohol, lesions in mm² vs controls): 76.6%; LD50 at 336 h [4, 9]: > 1000 mg/kg |
